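At the GI50, growth is halved. TGI marks complete inhibition of growth.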
Legend:
Assay in all cases: NCI tumour cell line growth inhibition, 384-well format
UACC-62 melanoma = system: UACC-62 melanoma
MALME-3M melanoma = system: MALME-3M melanoma
HOP-92 NSCLC = system: HOP-92 NSCLC
786-0 renal = system: 786-0 renal
CAKI-1 renal = system: CAKI-1 renal
NCI-H522 lung = system: NCI-H522 lung
MDA-MB-435 melanoma = system: MDA-MB-435 melanoma
SN12C renal = system: SN12C renal
UACC-257 melanoma = system: UACC-257 melanoma
SF-268 CNS = system: SF-268 CNS
NCI-H226 lung = system: NCI-H226 lung
LOX IMVI melanoma = system: LOX IMVI melanoma
SK-OV-3 ovarian = system: SK-OV-3 ovarian
HCT-116 colon = system: HCT-116 colon
DU-145 prostate = system: DU-145 prostate
SW-620 colon = system: SW-620 colon
HCC-2998 colon = system: HCC-2998 colon
UO-31 renal = system: UO-31 renal
HOP-62 NSCLC = system: HOP-62 NSCLC
BT-549 breast = system: BT-549 breast
A498 renal = system: A498 renal
MDA-MB-468 breast = system: MDA-MB-468 breast
SF-295 CNS = system: SF-295 CNS
COLO 205 colon = system: COLO 205 colon
SNB-75 CNS = system: SNB-75 CNS
RXF 393 renal = system: RXF 393 renal
NCI/ADR-RES ovarian = system: NCI/ADR-RES ovarian
KM12 colon = system: KM12 colon
PC-3 prostate = system: PC-3 prostate
OVCAR-3 ovarian = system: OVCAR-3 ovarian
EKVX NSCLC = system: EKVX NSCLC
CCRF-CEM leukemia = system: CCRF-CEM leukemia
OVCAR-4 ovarian = system: OVCAR-4 ovarian
SF-539 CNS = system: SF-539 CNS
MCF7 breast = system: MCF7 breast
SK-MEL-5 melanoma = system: SK-MEL-5 melanoma
ACHN renal = system: ACHN renal
M14 melanoma = system: M14 melanoma
OVCAR-8 ovarian = system: OVCAR-8 ovarian
TK-10 renal = system: TK-10 renal
NCI-H23 lung = system: NCI-H23 lung
SK-MEL-28 melanoma = system: SK-MEL-28 melanoma
HS 578T breast = system: HS 578T breast
IGROV1 ovarian = system: IGROV1 ovarian
K-562 leukemia = system: K-562 leukemia
MDA-MB-231 breast = system: MDA-MB-231 breast
U251 glioblastoma = system: U251 glioblastoma
A549 NSCLC = system: A549 NSCLC
NCI-H322M lung = system: NCI-H322M lung
HT29 colon = system: HT29 colon
HCT-15 colon = system: HCT-15 colon
NCI-H460 NSCLC = system: NCI-H460 NSCLC
T-47D breast = system: T-47D breast
MOLT-4 leukemia = system: MOLT-4 leukemia

Cc1cc(C(=O)NOCCO)c(Nc2ccc(I)cc2F)n(C)c1=O
GI50 (UACC-62 melanoma): < 0.01 µM
TGI (UACC-62 melanoma): < 0.01 µM
GI50 (MALME-3M melanoma): < 0.01 µM
TGI (MALME-3M melanoma): < 0.01 µM
GI50 (HOP-92 NSCLC): 0.0157 µM
TGI (HOP-92 NSCLC): 0.125 µM
GI50 ([…]-0 renal): 0.0446 µM
TGI (786-0 renal): > 100 µM
GI50 (CAKI-1 renal): 0.012 µM
TGI (CAKI-1 renal): > 100 µM
GI50 (NCI-H522 lung): 33.2 µM
TGI (NCI-H522 lung): > 100 µM
GI50 (MDA-MB-435 melanoma): < 0.01 µM
TGI (MDA-MB-435 melanoma): > 100 µM
GI50 (SN12C renal): < 0.01 µM
TGI (SN12C renal): 48.7 µM
GI50 (UACC-257 melanoma): < 0.01 µM
TGI (UACC-257 melanoma): < 0.01 µM
GI50 (SF-268 CNS): > 100 µM
TGI (SF-268 CNS): > 100 µM
GI50 (NCI-H226 lung): 0.0389 µM
TGI (NCI-H226 lung): 94.4 µM
GI50 (LOX IMVI melanoma): < 0.01 µM
TGI (LOX IMVI melanoma): 0.116 µM
GI50 (SK-OV-3 ovarian): > 100 µM
TGI (SK-OV-3 ovarian): > 100 µM
GI50 (HCT-116 colon): < 0.01 µM
TGI (HCT-116 colon): 0.121 µM
GI50 (DU-145 prostate): 4.72 µM
TGI (DU-145 prostate): > 100 µM
GI50 (SW-620 colon): < 0.01 µM
TGI (SW-620 colon): > 100 µM
GI50 (HCC-2998 colon): < 0.01 µM
TGI (HCC-2998 colon): < 0.01 µM
GI50 (UO-31 renal): 0.0404 µM
TGI (UO-31 renal): > 100 µM
GI50 (HOP-62 NSCLC): < 0.01 µM
TGI (HOP-62 NSCLC): > 100 µM
GI50 (BT-549 breast): 20.4 µM
TGI (BT-549 breast): > 100 µM
GI50 (A498 renal): 35.7 µM
TGI (A498 renal): > 100 µM
GI50 (MDA-MB-468 breast): 49.7 µM
TGI (MDA-MB-468 breast): > 100 µM
GI50 (SF-295 CNS): 65.7 µM
TGI (SF-295 CNS): > 100 µM
GI50 (COLO 205 colon): < 0.01 µM
TGI (COLO 205 colon): 0.0132 µM
GI50 (SNB-75 CNS): 0.18 µM
TGI (SNB-75 CNS): > 100 µM
GI50 (RXF 393 renal): 0.0582 µM
TGI (RXF 393 renal): > 100 µM
GI50 (NCI/ADR-RES ovarian): > 100 µM
TGI (NCI/ADR-RES ovarian): > 100 µM
GI50 (KM12 colon): < 0.01 µM
TGI (KM12 colon): > 100 µM
GI50 (PC-3 prostate): > 100 µM
TGI (PC-3 prostate): > 100 µM
GI50 (OVCAR-3 ovarian): 62.9 µM
TGI (OVCAR-3 ovarian): > 100 µM
GI50 (EKVX NSCLC): 0.0243 µM
TGI (EKVX NSCLC): > 100 µM
GI50 (CCRF-CEM leukemia): > 100 µM
TGI (CCRF-CEM leukemia): > 100 µM
GI50 (OVCAR-4 ovarian): > 100 µM
TGI (OVCAR-4 ovarian): > 100 µM
GI50 (SF-539 CNS): 0.052 µM
TGI (SF-539 CNS): > 100 µM
GI50 (MCF7 breast): > 100 µM
TGI (MCF7 breast): > 100 µM
GI50 (SK-MEL-5 melanoma): < 0.01 µM
TGI (SK-MEL-5 melanoma): > 100 µM
GI50 (ACHN renal): 22.2 µM
TGI (ACHN renal): > 100 µM
GI50 (M14 melanoma): < 0.01 µM
TGI (M14 melanoma): < 0.01 µM
GI50 (OVCAR-8 ovarian): 32 µM
TGI (OVCAR-8 ovarian): > 100 µM
GI50 (TK-10 renal): 0.0521 µM
TGI (TK-10 renal): > 100 µM
GI50 (NCI-H23 lung): < 0.01 µM
TGI (NCI-H23 lung): 0.0435 µM
GI50 (SK-MEL-28 melanoma): < 0.01 µM
TGI (SK-MEL-28 melanoma): < 0.01 µM
GI50 (HS 578T breast): 0.0264 µM
TGI (HS 578T breast): > 100 µM
GI50 (IGROV1 ovarian): < 0.01 µM
TGI (IGROV1 ovarian): > 100 µM
GI50 (K-562 leukemia): 0.0114 µM
TGI (K-562 leukemia): > 100 µM
GI50 (MDA-MB-231 breast): < 0.01 µM
TGI (MDA-MB-231 breast): 0.138 µM
GI50 (U251 glioblastoma): 0.0391 µM
TGI (U251 glioblastoma): > 100 µM
GI50 (A549 NSCLC): 0.0118 µM
TGI (A549 NSCLC): 74.2 µM
GI50 (NCI-H322M lung): < 0.01 µM
TGI (NCI-H322M lung): > 100 µM
GI50 (HT29 colon): < 0.01 µM
TGI (HT29 colon): > 100 µM
GI50 (HCT-15 colon): 0.145 µM
TGI (HCT-15 colon): > 100 µM
GI50 (NCI-H460 NSCLC): < 0.01 µM
TGI (NCI-H460 NSCLC): > 100 µM
GI50 (T-47D breast): > 100 µM
TGI (T-47D breast): > 100 µM
GI50 (MOLT-4 leukemia): > 100 µM
TGI (MOLT-4 leukemia): > 100 µM
